The values that follow come from US8492559B2, “Substituted indole compounds” (Gruenenthal GmbH, priority 2009, dated 2013).

Each structure is given as a SMILES string.

In general, inhibition refers to the change of the read-out against control, counted positive when it falls.

For this experiment, the target named is T1, human B1R receptor (hB1R) (Homo sapiens, UniProt P46663).
T1 construct: expressed in transfected cells; host or cells: CHO K1 cells
T1 sequence (P46663 1-353): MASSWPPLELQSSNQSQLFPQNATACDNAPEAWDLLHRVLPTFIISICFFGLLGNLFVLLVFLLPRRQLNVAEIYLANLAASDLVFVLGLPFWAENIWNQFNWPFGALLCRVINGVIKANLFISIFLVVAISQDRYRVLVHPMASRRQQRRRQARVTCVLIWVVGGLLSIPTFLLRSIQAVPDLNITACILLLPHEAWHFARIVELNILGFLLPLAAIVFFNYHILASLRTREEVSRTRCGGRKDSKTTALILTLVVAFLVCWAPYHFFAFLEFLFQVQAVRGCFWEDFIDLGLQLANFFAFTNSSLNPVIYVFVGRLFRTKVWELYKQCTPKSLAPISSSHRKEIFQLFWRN
The experiment is described as follows: Functional investigation on the bradykinin 1 receptor (B1R), FLIPR Ca2+ assay, hB1R cells. It counts as cell-based. The conditions noted are these: CHO-K1, 10 μM test substance; CHO K1 cells with human B1R; agonist Lys-Des-Arg9 bradykinin; % of maximum achievable inhibition; read-out: B1R antagonism, human [10 μM] % inhibition. The protocol: The agonistic or antagonistic action of substances can be quantified on the bradykinin 1 receptor (B1R) of the human and rat species with ectopically expressing cell lines (CHO K1 cells) and with the aid of a Ca^2+-sensitive dye (Fluo-4) using a fluorescent imaging plate reader (FLIPR). The indication in % activation is based on the Ca^2+ signal after addition of Lys-Des-Arg^9 bradykinin (0.5 nM) or Des-Arg^9 bradykinin (100 nM). Antagonists lead to a suppression of the Ca^2+ influx following administration of the agonist. The % inhibition in comparison with the maximum achievable inhibition is indicated.
1. Functional Investigation on the Bradykinin 1 Receptor (B1R)
The agonistic or antagonistic action of substances can be determined on the bradykinin 1 receptor (B1R) of the human and rat species with the following assay. According to this assay, the Ca^2+ inflow through the channel is quantified with the aid of a Ca^2+-sensitive dye (Fluo-4 type, Molecular Probes Europe BV, Leiden, Netherlands) in a fluorescent imaging plate reader (FLIPR, Molecular Devices, Sunnyvale, USA).
Chinese hamster ovary cells (CHO K1 cells) which are stably transfected with the human B1R gene (hB1R cells) or the B1R gene of the rat (rB1R cells) are used. For functional investigations these cells are plated-out onto black 96-well plates with a clear base (BD Biosciences, Heidelberg, Germany or Greiner, Frickenhausen, Germany) in a density of 20,000-35,000 cells/well. Overnight the cells are incubated at 37° C. and 5% CO2 in culture medium (hB1R cells: Ham's Nutrient Mixture F12, Gibco Invitrogen GmbH, Karlsruhe, Germany or DMEM, Sigma-Aldrich, Taufkirchen, Germany; rB1R cells: D-MEM/F12, Gibco Invitrogen, Karlsruhe, Germany) with 10 vol. % FBS (foetal bovine serum, Gibco Invitrogen GmbH, Karlsruhe, Germany or PAN Biotech GmbH, Aidenbach, Germany).
On the following day the cells are loaded with 2.13 μM Fluo-4 (Molecular Probes Europe BV, Leiden, Netherlands) in HBSS buffer (Hank's buffered saline solution, Gibco Invitrogen GmbH, Karlsruhe, Germany) with 2.5 mM probenecid (Sigma-Aldrich, Taufkirchen, Germany) and 10 mM HEPES (Sigma-Aldrich, Taufkirchen, Germany) for 60 min at 37° C. The plates are subsequently washed twice with HBSS buffer, and HBSS buffer which additionally contains 0.1% BSA (bovine serum albumin; Sigma-Aldrich, Taufkirchen, Germany), 5.6 mM glucose and 0.05% gelatine (Merck KGaA, Darmstadt, Germany) is added. After a further incubation of 20 minutes at room temperature, the plates are inserted into the FLIPR for Ca^2+ measurement.
Alternatively they are washed with buffer A (15 mM HEPES, 80 mM NaCl, 5 mM KCl, 1.2 mM CaCl2, 0.7 mM MgSO4, 2 g/l glucose, 2.5 mM probenecid) and loaded with buffer A with added 2.5 μM Fluo-4 and 0.025% Pluronic F127 (Sigma-Aldrich, Taufkirchen, Germany). The cells are then washed twice with buffer A and incubated for 30 minutes with buffer A, which additionally contains 0.05% BSA and 0.05% gelatine, at room temperature and then used for Ca^2+ measurement in the FLIPR. The Ca^2+-dependent fluorescence is measured here before and after addition of substances (λex=488 nm, λem=540 nm). The quantification is performed by measuring the highest fluorescence intensity (FC, fluorescence counts) over time.
The FLIPR protocol comprises two additions of substance. Test substances (10 μM) are first pipetted onto the cells and the Ca^2+ inflow is compared with the control (hB1R: Lys-Des-Arg^9 bradykinin>=50 nM; rB1R: Des-Arg^9 bradykinin 10 μM). The value in % activation based on the Ca^2+ signal after addition of Lys-Des-Arg^9 bradykinin (>=50 nM) or Des-Arg^9 bradykinin (10 μM) is obtained therefrom. After incubation for 10-20 minutes, Lys-Des-Arg^9 bradykinin (hB1R) or Des-Arg^9 bradykinin (rB1R) is applied in the EC80 concentration and the inflow of Ca^2+ is likewise determined.
Antagonists lead to a suppression of the Ca^2+ inflow. The % inhibition in comparison with the maximum achievable inhibition is calculated. […]
In the case of `COc1cc(C)c(S(=O)(=O)Nc2cccc3ccn(CC(=O)N4CCC5(CCN(c6ccncc6)C5)C4)c23)c(C)c1` (stereo not drawn) [Compound G-17, 4-Methoxy-2,6-dimethyl-N-(1-(2-oxo-2-(7-(pyridin-4-yl)-2,7-diazaspiro[4.4]nonan-2-yl)ethyl)-1H-indol-7-yl)benzenesulfonic acid amide], the inhibition at 10 µM was 100%.
On to `O=C(Cn1ccc2cccc(N3Cc4cccc(Cl)c4C3=O)c21)N1CCC2(CC1)CCN(c1ccncc1)CC2` [Compound G-11, 7-Chloro-2-(1-(2-oxo-2-(9-(pyridin-4-yl)-3,9-diazaspiro[5.5]undecan-3-yl)ethyl)-1H-indol-7-yl)isoindolin-1-one], for which the inhibition at 10 µM worked out at 46%.
As for `COc1cc(C)c(S(=O)(=O)Nc2cccc3ccn(CC(=O)N(C)CCCN4CCN(c5ccncc5)CC4)c23)c(C)c1` [G_CC-88, 2-[7-[[(4-Methoxy-2,6-dimethyl-phenyl)sulfonyl]amino]-1H-indol-1-yl]-N-methyl-N-[3-(4-pyridin-4-yl-piperazin-1-yl)-propyl]-acetamide], the inhibition at 10 µM worked out at 100%.
Next, `COc1cc(C)c(S(=O)(=O)Nc2cccc3ccn(CC(=O)N4CCC5(CC4)C(=O)NCN5c4ccccc4)c23)c(C)c1` [Compound G-04, 4-Methoxy-2,6-dimethyl-N-[1-[2-oxo-2-(1-oxo-4-phenyl-2,4,8-triazaspiro[4.5]decan-8-yl)-ethyl]-1H-indol-7-yl]-benzenesulfonic acid amide]: 68%.
As to `Cn1c2c(c3c(Cl)cccc31)C(=O)N(c1ccc3ccn(CC(=O)N4CCC5(CC4)CCN(c4ccncc4)CC5)c3c1)C2` [Compound G-23, 8-Chloro-4-methyl-2-[1-[2-oxo-2-(9-pyridin-4-yl-3,9-diazaspiro[5.5]undecan-3-yl)-ethyl]-1H-indol-6-yl]-3,4-dihydro-2H-pyrrolo[3,4-b]indol-1-one], the inhibition at 10 µM was 100%.
Take `COc1cc(C)c(S(=O)(=O)Nc2cccc3ccn(CC(=O)N4CCC5(CC4)CC(c4ccncc4)=NO5)c23)c(C)c1` [Compound G-13, 4-Methoxy-2,6-dimethyl-N-(1-(2-oxo-2-(3-(pyridin-4-yl)-1-oxa-2,8-diazaspiro[4.5]dec-2-en-8-yl)ethyl)-1H-indol-7-yl)benzenesulfonic acid amide]: the inhibition at 10 µM stood at 73%.
With `COc1cc(C)c(S(=O)(=O)Nc2cccc3ccn(CC(=O)N4CCC5(CC4)CCN(c4ccncc4)CC5)c23)c(C)c1` [G_CC-91, 4-Methoxy-2,6-dimethyl-N-[1-[2-oxo-2-(3-pyridin-4-yl-3,9-diazaspiro-[5.5]undecan-9-yl)-ethyl]-1H-indol-7-yl]-benzenesulfonic acid amide], the inhibition at 10 µM was found to be 100%.
Then `O=C(Cn1ccc2ccc(N3CCn4ccc(Cl)c4C3=O)cc21)N1CCC2(CC1)CCN(c1ccncc1)CC2` [Compound G-33, 8-Chloro-2-[1-[2-oxo-2-(9-pyridin-4-yl-3,9-diazaspiro[5.5]undecan-3-yl)-ethyl]-1H-indol-6-yl]-3,4-dihydro-2H-pyrrolo[1,2-a]pyrazin-1-one], with 93%.
Then `COc1cc(C)c(S(=O)(=O)Nc2cccc3ccn(CC(=O)N4CCC(N5CCc6cc(CN7CCCCC7)ccc6C5)C4)c23)c(C)c1` (stereo not drawn) [Compound G-16, 4-Methoxy-2,6-dimethyl-N-(1-(2-oxo-2-(3-(6-(piperidin-1-ylmethyl)-3,4-dihydroisoquinolin-2(1H)-yl)pyrrolidin-1-yl)ethyl)-1H-indol-7-yl)benzenesulfonic acid amide], with 100%; and `COc1cc(C)c(S(=O)(=O)Nc2cccc3ccn(CCC(=O)NCCC4CCN(c5ccncc5)CC4)c23)c(C)c1` [G_CC-47, 3-[7-[[(4-Methoxy-2,6-dimethyl-phenyl)sulfonyl]amino]-1H-indol-1-yl]-N-[2-(1-pyridin-4-yl-piperidin-4-yl)-ethyl]-propionamide], with 100%; and `COc1cc(C)c(S(=O)(=O)Nc2cccc3ccn(CC(=O)N4CCC(CCN5CCCC5)CC4)c23)c(C)c1` [Compound G-02, 4-Methoxy-2,6-dimethyl-N-[1-[2-oxo-2-[4-(2-pyrrolidin-1-yl-ethyl)-piperidin-1-yl]-ethyl]-1H-indol-7-yl]-benzenesulfonic acid amide], with 95%.
For the molecule `COc1cc(C)c(S(=O)(=O)Nc2ccc3ccn(CC(=O)N4CCC(CCN5CCCC5)CC4)c3c2)c(C)c1` [Compound G-01, 4-Methoxy-2,6-dimethyl-N-[1-[2-oxo-2-[4-(2-pyrrolidin-1-yl-ethyl)-piperidin-1-yl]-ethyl]-1H-indol-6-yl]-benzenesulfonic acid amide], the inhibition at 10 µM is 98%.
Turning to `O=C(CCn1ccc2cccc(N3Cc4cccc(Cl)c4C3=O)c21)N1CCC2(CC1)CCN(c1ccncc1)CC2` [Compound G-10, 7-Chloro-2-(1-(3-oxo-3-(9-(pyridin-4-yl)-3,9-diazaspiro[5.5]undecan-3-yl)propyl)-1H-indol-7-yl)isoindolin-1-one], the inhibition at 10 µM was 100%.
Then `COc1cc(C)c(S(=O)(=O)Nc2cccc3ccn(CCC(=O)N4CCN(CC5CCN(C)CC5)CC4)c23)c(C)c1` [G_CC-43, 4-Methoxy-2,6-dimethyl-N-[1-[3-[4-[(1-methyl-piperidin-4-yl)-methyl]-piperazin-1-yl]-3-oxo-propyl]-1H-indol-7-yl]-benzenesulfonic acid amide], with 100%.
Next, `O=C(Cn1ccc2ccc(N3Cc4cccc(Cl)c4C3=O)cc21)N1CCC2(CCC(N3CCC3)CC2)CC1` [Compound G-21, 2-(1-(2-(9-(Azetidin-1-yl)-3-azaspiro[5.5]undecan-3-yl)-2-oxoethyl)-1H-indol-6-yl)-7-chloroisoindolin-1-one]: 99%.
Regarding `COc1cc(C)c(S(=O)(=O)Nc2cccc3ccn(CC(=O)N4CCC5(CC4)CCN(Cc4ccccc4)C5=O)c23)c(C)c1` [G_CC-32, N-[1-[2-(3-Benzyl-4-oxo-3,8-diazaspiro[4.5]decan-8-yl)-2-oxo-ethyl]-1H-indol-7-yl]-4-methoxy-2,6-dimethyl-benzenesulfonic acid amide], the inhibition at 10 µM worked out at 73%.
Turning to `COc1cc(C)c(S(=O)(=O)NCc2cccc3ccn(CC(=O)N4CCC5(CC4)CCN(c4ccncc4)CC5)c23)c(C)c1` [Compound G-24, 4-Methoxy-2,6-dimethyl-N-[[1-[2-oxo-2-(9-pyridin-4-yl-3,9-diazaspiro[5.5]undecan-3-yl)-ethyl]-1H-indol-7-yl]-methyl]-benzenesulfonic acid amide], the inhibition at 10 µM came out at 98%.
Next, `O=C(Cn1ccc2ccc(N3Cc4cccc(Cl)c4C3=O)cc21)N1CCC2(CCC(Oc3ccncc3)CC2)CC1` [Compound G-19, 7-Chloro-2-(1-(2-oxo-2-(9-(pyridin-4-yloxy)-3-azaspiro[5.5]undecan-3-yl)ethyl)-1H-indol-6-yl)isoindolin-1-one]: 97%.
